Experimental data as given in US9771353B2, “Kinase inhibitors based upon N-alkyl pyrazoles” (RESPIVERT LIMITED, priority 2013, dated 2017).

Tests used:
GSK3α = GSK3α (Homo sapiens (Human), UniProt P49840); experiment: GSK 3α enzyme inhibition (FRET, Z-LYTE), Method 2; type: biochemical
Protocol: (§1) The enzyme inhibitory activities of compounds disclosed herein are determined by FRET using synthetic peptides labelled with both donor and acceptor fluorophores (Z-LYTE, Invitrogen Ltd., Paisley, UK).
The inhibitory activities of compounds of the invention against the GSK 3α enzyme isoform (Invitrogen), are evaluated by determining the level of activation/phosphorylation of the target peptide. The GSK3-α protein (500 ng/mL, 2.5 μL) is mixed with the test compound (2.5 μL at either 4 μg/mL, 0.4 μg/mL, 0.04 μg/mL, or 0.004 μg/mL) for 2 hr at RT. The FRET peptide (8 μM, 2.5 μL), which is a phosphorylation target for GSK3α, and ATP (40 μM, 2.5 μL) are then added to the enzyme/compound mixture and the resulting mixture incubated for 1 hr. Development reagent (protease, 5 μL) is added for 1 hr prior to detection in a fluorescence microplate reader (Varioskan® Flash, ThermoFisher Scientific).
(§2) In all cases, the site-specific protease cleaves non-phosphorylated peptide only and eliminates the FRET signal. Phosphorylation levels of each reaction are calculated using the ratio of coumarin emission (donor) over fluorescein emission (acceptor), for which high ratios indicate high phosphorylation and low ratios indicate low phosphorylation levels.
This method follows the same steps as Method 1 above, but utilises a shorter period of mixing of the test compound (105 minutes instead of 2 hours) with the GSK3-α protein.

PBMCs [1] = experiment: LPS-induced TNFα/IL-8 release in PBMC cells, assay (b); type: cell-based; settings: Homo sapiens, LPS-stimulated PBMCs, read-out: IC50 Values for Inhibition of Cytokine Release, PBMCs IL-8
Protocol: Peripheral blood mononuclear cells (PBMCs) from healthy subjects are separated from whole blood using a density gradient (Lymphoprep, Axis-Shield Healthcare). The PBMCs are seeded in 96 well plates and treated with compounds at the desired concentration for 2 hours before addition of 1 ng/mL LPS (Escherichia Coli 0111:B4 from Sigma Aldrich) for 24 hours under normal tissue culture conditions (37° C., 5% CO2). The supernatant is harvested for determination of IL-8 and TNFα concentrations by sandwich ELISA (Duo-set, R&D systems) and read on the fluorescence microplate reader (Varioskan® Flash, ThermoFisher Scientific).

p38 MAPKα = p38 MAPKα (Homo sapiens (Human), UniProt Q16539); experiment: p38 MAPKα enzyme inhibition (FRET, Z-LYTE), Method 2; type: biochemical
PBMCs [2] = experiment: IL-2 and IFN gamma release in CD3/CD28 stimulated PBMC cells, assay (c); type: cell-based; settings: Homo sapiens
Protocol: PBMCs from healthy subjects are separated from whole blood using a density gradient (Lymphoprep, Axis-Shield Healthcare). Cells are added to a 96 well plate pre-coated with a mixture of CD3/CD28 monoclonal antibodies (0.3 μg/mL eBioscience and 3 μg/mL BD Pharmingen respectively). Compound at the desired concentration is then added to the wells and the plate left for 3 days under normal tissue culture conditions. Supernatants are harvested and IL-2 and IFN gamma release determined by Sandwich ELISA (Duo-set, R&D System). The IC50 is determined from the dose response curve.

d-U937 cells = experiment: Accumulation of β catenin in d-U937 cells, assay (m); type: cell-based, human
Protocol: U937 cells, a human monocytic cell line, are differentiated into macrophage-type cells by incubation with PMA; (100 ng/mL) for between 48 to 72 hr. The cells are then incubated with either final concentrations of test compound or vehicle for 18 hr. The induction of β-catenin by the test compounds is stopped by replacing the media with 4% formaldehyde solution. Endogenous peroxide activity is neutralised by incubating with quenching buffer (100 μL, 0.1% sodium azide, 1% H2O2 in PBS with 0.05% Tween-20) for 20 min. The cells are washed with washing buffer (200 μL; PBS containing 0.05% Tween-20) and incubated with blocking solution (200 μL; 5% milk in PBS) for 1 hr, re-washed with washing buffer (200 μL) and then incubated overnight with anti-β-catenin antibody solution (50 μL) in 1% BSA/PBS (BD, Oxford, UK).
After washing with washing buffer (3×200 μL; PBS containing 0.05% Tween-20), cells are incubated with an HRP-conjugated secondary antibody solution (100 μL) in 1% BSA/PBS (Dako, Cambridge, UK) and the resultant signal is determined colourimetrically (OD: 450 nm with a reference wavelength of 655 nm) using TMB substrate (50 μL; R&D Systems, Abingdon, UK). This reaction is stopped by addition of 1N H2SO4 solution (50 μL). Cells are then washed with washing buffer and 2% crystal violet solution (50 μL) is applied for 30 min. After washing with washing buffer (3×200 μL), 1% SDS (100 μL) is added to each well and the plates are shaken lightly for 1 hr prior to measuring the absorbance at 595 nm (Varioskan® Flash, Thermo-Fisher Scientific).
The measured OD450-655 readings are corrected for cell number by dividing the OD450-655 by the OD595 readings. The percentage induction for each well is calculated relative to vehicle, and the ratio of induction normalised in comparison with the induction produced by a standard control comprising of N-(4-(4-(3-(3-tert-butyl-1-p-tolyl-1H-pyrazol-5-yl)ureido)naphthalen-1-yloxy)pyridin-2-yl)-2-methoxyacetamide (1 μg/mL) which is defined as 100%.

c-Src = c-Src (Homo sapiens (Human), UniProt P12931); experiment: c-Src enzyme inhibition (FRET, Z-LYTE); type: biochemical
Protocol: as §1
(§3) The relevant enzyme (3000 ng/mL or 2000 ng/mL respectively, 2.5 μL) is incubated with the test compound (either 4 μg/mL, 0.4 μg/mL, 0.04 μg/mL, or 0.004 μg/mL, 2.5 μL each) for 2 hr at RT. The FRET peptides (8 μM, 2.5 μL), and appropriate ATP solutions (2.5 μL, 800 μM for c-Src, and 60 μM ATP for Syk) are then added to the enzymes/compound mixtures and incubated for 1 hr. Development reagent (protease, 5 μL) is added for 1 hr prior to detection in a fluorescence microplate reader (Varioskan® Flash, ThermoFisher Scientific).
as §2

Syk = Syk (Homo sapiens (Human), UniProt P43405); experiment: Syk enzyme inhibition (FRET, Z-LYTE); type: biochemical
Protocol: as §1
as §3, with “The inhibitory activities of compounds of the invention against c-Src and Syk enzymes (Invitrogen), are evaluated in a similar fashion to that described hereinabove. The relevant” for “The relevant”
as §2

[3] = IFNγ, read-out: IC50 Values for Inhibition of Cytokine Release, PBMCs IFNγ
[4] = 1 μg/mL test compound, normalised to reference N-(4-(4-(3-(3-tert-butyl-1-p-tolyl-1H-pyrazol-5-yl)ureido)naphthalen-1-yloxy)pyridin-2-yl)-2-methoxyacetamide
[5] = 5 μg/mL test compound, normalised to the same reference compound
[6] = 10 μg/mL test compound, normalised to the same reference compound

Sequence of GSK3α (P49840 whole entry): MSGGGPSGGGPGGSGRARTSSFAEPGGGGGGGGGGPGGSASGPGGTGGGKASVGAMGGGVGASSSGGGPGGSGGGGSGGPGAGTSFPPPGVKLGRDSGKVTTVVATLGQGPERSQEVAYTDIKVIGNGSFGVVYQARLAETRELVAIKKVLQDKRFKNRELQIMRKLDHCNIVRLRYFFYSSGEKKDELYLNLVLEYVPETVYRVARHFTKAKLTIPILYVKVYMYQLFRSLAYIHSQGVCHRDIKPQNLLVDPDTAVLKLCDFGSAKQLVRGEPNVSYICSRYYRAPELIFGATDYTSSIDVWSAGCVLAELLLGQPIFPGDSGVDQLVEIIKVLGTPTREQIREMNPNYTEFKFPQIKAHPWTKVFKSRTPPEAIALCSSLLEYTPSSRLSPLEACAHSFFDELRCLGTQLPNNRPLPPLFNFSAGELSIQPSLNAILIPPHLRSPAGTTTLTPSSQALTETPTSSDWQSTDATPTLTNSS
Sequence of p38 MAPKα (Q16539 whole entry): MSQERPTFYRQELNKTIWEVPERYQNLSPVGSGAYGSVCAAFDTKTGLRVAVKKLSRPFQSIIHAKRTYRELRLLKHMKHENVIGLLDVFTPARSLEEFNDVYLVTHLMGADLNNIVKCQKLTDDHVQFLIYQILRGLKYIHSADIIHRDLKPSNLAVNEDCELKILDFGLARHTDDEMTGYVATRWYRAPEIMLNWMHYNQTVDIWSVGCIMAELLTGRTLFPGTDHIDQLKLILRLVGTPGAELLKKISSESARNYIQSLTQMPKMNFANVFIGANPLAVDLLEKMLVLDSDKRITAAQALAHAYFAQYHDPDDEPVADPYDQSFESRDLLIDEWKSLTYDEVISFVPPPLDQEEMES
Sequence of c-Src (P12931 whole entry, looked up): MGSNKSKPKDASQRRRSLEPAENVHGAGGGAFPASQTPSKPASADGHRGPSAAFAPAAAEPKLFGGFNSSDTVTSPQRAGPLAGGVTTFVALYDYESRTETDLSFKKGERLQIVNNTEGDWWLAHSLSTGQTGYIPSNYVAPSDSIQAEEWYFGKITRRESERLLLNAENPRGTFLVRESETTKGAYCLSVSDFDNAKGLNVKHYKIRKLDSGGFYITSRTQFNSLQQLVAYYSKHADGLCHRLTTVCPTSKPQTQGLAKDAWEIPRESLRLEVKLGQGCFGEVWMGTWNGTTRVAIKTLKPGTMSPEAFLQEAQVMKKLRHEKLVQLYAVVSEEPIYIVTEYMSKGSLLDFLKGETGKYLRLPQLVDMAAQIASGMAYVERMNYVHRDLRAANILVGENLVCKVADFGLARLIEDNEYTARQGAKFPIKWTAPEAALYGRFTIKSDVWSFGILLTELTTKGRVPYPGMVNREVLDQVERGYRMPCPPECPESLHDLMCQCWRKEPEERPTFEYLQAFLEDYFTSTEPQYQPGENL

C#Cc1cc(Nc2nccc(Oc3ccc(NC(=O)Nc4cc(C(C)(C)C)nn4C(C)C)c4ccccc34)n2)cc(C(=O)NCCOCCOCCOC)c1 [13(a), 3-((4-((4-(3-(3-(tert-Butyl)-1-isopropyl-1H-pyrazol-5-yl)ureido)naphthalen-1-yl)oxy)pyrimidin-2-yl)amino)-5-ethynyl-N-(2-(2-(2-methoxyethoxy)ethoxy)ethyl)-benzamide]
IC50 (GSK3α): 8610 nM
IC50 (PBMCs [1]): 5.4 nM

C#Cc1cc(Nc2nccc(Oc3ccc(NC(=O)Nc4cc(C(C)(C)C)nn4CCC)c4ccccc34)n2)cc(C(=O)NCCOCCOCCOC)c1 [13(b), 3-((4-((4-(3-(3-(tert-Butyl)-1-propyl-1H-pyrazol-5-yl)ureido)naphthalen-1-yl)oxy)-pyrimidin-2-yl)amino)-5-ethynyl-N-(2-(2-(2-methoxyethoxy)ethoxy)ethyl)benzamide]
IC50 (GSK3α): 13100 nM
IC50 (PBMCs [1]): 9.3 nM

COc1cc(Nc2nccc(Oc3ccc(NC(=O)Nc4cc(C(C)(C)C)nn4C)c4ccccc34)n2)cc(S(=O)(=O)C2CC2)c1 [Example 3, 1-(3-(tert-Butyl)-1-methyl-1H-pyrazol-5-yl)-3-(4-((2-((3-(cyclopropylsulfonyl)-5-methoxy-phenyl)amino)pyrimidin-4-yl)oxy)naphthalen-1-yl)urea]
IC50 (p38 MAPKα): 36 nM
IC50 (GSK3α): 1940 nM
IC50 (PBMCs [1]): 7.2 nM
IC50 (PBMCs [2]; [3]): 22 nM
% β-catenin induction (d-U937 cells; [4]): −1%
% β-catenin induction (d-U937 cells; [5]): 25%
% β-catenin induction (d-U937 cells; [6]): 27%

C#Cc1cc(Nc2nccc(Oc3ccc(NC(=O)Nc4cc(C(C)(C)C)nn4C)c4ccccc34)n2)cc(C(=O)NCCOCCOC)c1 [Example 4, 3-((4-((4-(3-(3-(tert-Butyl)-1-methyl-1H-pyrazol-5-yl)ureido)naphthalen-1-yl)oxy)pyrimidin-2-yl)amino)-5-ethynyl-N-(2-(2-methoxyethoxy)ethyl)]
IC50 (GSK3α): 1010 nM
IC50 (PBMCs [1]): 4.7 nM

COCCOCCOCCOc1cc(Nc2cc(Oc3ccc(NC(=O)Nc4cc(C(C)(C)C)nn4C)c4ccccc34)ccn2)cc(OC)c1 [Example 5, 1-(3-(tert-Butyl)-1-methyl-1H-pyrazol-5-yl)-3-(4-((2-((3-methoxy-5-(2-(2-(2-methoxy-ethoxy)ethoxy)ethoxy)phenyl)amino)pyridin-4-yl)oxy)naphthalen-1-yl)]
IC50 (p38 MAPKα): 160 nM
IC50 (c-Src): 10 nM
IC50 (Syk): > 1000 nM
IC50 (GSK3α): 7490 nM
IC50 (PBMCs [1]): 2.8 nM
IC50 (PBMCs [2]; [3]): 13.3 nM
IC50 (PBMCs [2]; IL-2, read-out: IC50 Values for Inhibition of Cytokine Release, PBMCs IL-2): 33.8 nM
% β-catenin induction (d-U937 cells; [4]): −5.5%
% β-catenin induction (d-U937 cells; [5]): −7%
% β-catenin induction (d-U937 cells; [6]): −2%

COCCOCCOCCOCCOCCOCCOCCOc1cc(Nc2nccc(Oc3ccc(NC(=O)Nc4cc(C(C)(C)C)nn4C)c4ccccc34)n2)cc(OC)c1 [Example 6, 1-(4-((2-((3-(2,5,8,11,14,17,20-Heptaoxadocosan-22-yloxy)-5-methoxyphenyl)amino)-pyrimidin-4-yl)oxy)naphthalen-1-yl)-3-(3-(tert-butyl)-1-methyl-1H-pyrazol-5-yl)urea]
IC50 (GSK3α): 1230 nM
IC50 (PBMCs [1]): 10.7 nM

C#Cc1cc(Nc2nccc(Oc3ccc(NC(=O)Nc4cc(C(C)(C)C)nn4C)c4ccccc34)n2)cc(C(=O)NCCOCCOCCOC)c1 [Example 7, 3-((4-((4-(3-(3-(tert-Butyl)-1-methyl-1H-pyrazol-5-yl)ureido)naphthalen-1-yl)oxy)pyrimidin-2-yl)amino)-5-ethynyl-N-(2-(2-(2-methoxyethoxy)ethoxy)ethyl)benzamide]
IC50 (p38 MAPKα): 11 nM
IC50 (c-Src): 5 nM
IC50 (Syk): > 1000 nM
IC50 (GSK3α): 1850 nM
IC50 (PBMCs [1]): 2.2 nM
IC50 (PBMCs [2]; [3]): 11.8 nM
% β-catenin induction (d-U937 cells; [4]): 1.5%
% β-catenin induction (d-U937 cells; [5]): 6%
% β-catenin induction (d-U937 cells; [6]): 9.5%

C#Cc1cc(Nc2nccc(Oc3ccc(NC(=O)Nc4cc(C(C)(C)C)nn4C(C)(C)C)c4ccccc34)n2)cc(C(=O)NCCOCCOCCOC)c1 [Example 12, 3-((4-((4-(3-(1,3-Di-tert-butyl-1H-pyrazol-5-yl)ureido)naphthalen-1-yl)oxy)pyrimidin-2-yl)amino)-5-ethynyl-N-(2-(2-(2-methoxyethoxy)ethoxy)ethyl)benzamide]
IC50 (GSK3α): 13100 nM
IC50 (PBMCs [1]): 546 nM

C#Cc1cc(Nc2nccc(Oc3ccc(NC(=O)Nc4cc(C(C)(C)C)nn4-c4ccc(C)cc4)c4ccccc34)n2)cc(C(=O)NCCN2CCOCC2)c1 [Reference Compound A, 3-((4-((4-(3-(3-(tert-Butyl)-1-(p-tolyl)-1H-pyrazol-5-yl)ureido)naphthalen-1-yl)oxy)-pyrimidin-2-yl)amino)-5-ethynyl-N-(2-morpholinoethyl)benzamide, reference compound]
IC50 (p38 MAPKα): 54 nM

COCCOCCOCCOc1cc(Nc2nccc(Oc3ccc(NC(=O)Nc4cc(C(C)(C)C)nn4-c4ccc(C)cc4)c4ccccc34)n2)cc(OC)c1 [Reference Compound B, 1-(3-(tert-Butyl)-1-(p-tolyl)-1H-pyrazol-5-yl)-3-(4-((2-((3-methoxy-5-(2-(2-(2-methoxy-ethoxy)ethoxy)ethoxy)phenyl)amino)pyrimidin-4-yl)oxy)naphthalen-1-yl)urea, reference compound]
IC50 (p38 MAPKα): 139 nM
